Assay results published in a compilation of properties of binary mixtures (doi:10.1039/c7cp04592a).

Assay: xn = mol fraction of the nth substance listed
Settings: 100 kPa

CC[NH3+].O=[N+]([O-])[O-] + CC#N
Settings	electrical conductivity [S/m]	viscosity [mPa·s]
278 K, x1 = 0.1	1.12	–
278 K, x1 = 0.2	2.29	–
278 K, x1 = 0.5	2.85	–
278 K, x1 = 0.7	2	–
278 K, x1 = 0.9	1.59	–
288 K, x1 = 0.1	1.32	–
288 K, x1 = 0.2	2.85	–
288 K, x1 = 0.3	3.41	–
288 K, x1 = 0.5	3.77	–
288 K, x1 = 0.9	2.27	–
288.06 K, x1 = 0.6	–	13.65
288.06 K, x1 = 0.8	–	31.4
288.06 K, x1 = 0.9	–	40.5
288.06 K, x1 = 1	–	44.4
288.07 K, x1 = 0.1	–	0.815
288.09 K, x1 = 0.2	–	1.615
288.09 K, x1 = 0.4	–	5.47
288.09 K, x1 = 0.5	–	8.6
293.06 K, x1 = 0.4	–	4.9
293.07 K, x1 = 0.2	–	1.458
293.08 K, x1 = 0.8	–	26.09
293.08 K, x1 = 0.9	–	34
293.08 K, x1 = 0.98	–	36.9
293.08 K, x1 = 1	–	37.2
293.09 K, x1 = 0.5	–	7.45
293.09 K, x1 = 0.6	–	11.54
293.1 K, x1 = 0.1	–	0.754
293.11 K, x1 = 0.7	–	17.86
298 K, x1 = 0.1	1.69	0.685
298 K, x1 = 0.2	3.96	1.374
298 K, x1 = 0.3	4.71	2.451
298 K, x1 = 0.4	–	4.07
298 K, x1 = 0.5	5	6.37
298 K, x1 = 0.6	–	9.92
298 K, x1 = 0.8	–	20.97
298 K, x1 = 0.9	3.14	27.58
298 K, x1 = 0.98	–	32
298 K, x1 = 1	2.26	32.7
298.05 K, x1 = 0.8	–	21.52
298.07 K, x1 = 1	–	33.9
298.08 K, x1 = 0.7	–	15.22
298.08 K, x1 = 0.9	–	28.01
298.11 K, x1 = 0.3	–	2.463
298.11 K, x1 = 0.4	–	4.11
298.11 K, x1 = 0.5	–	6.46
298.13 K, x1 = 0.6	–	10.08
298.14 K, x1 = 0.1	–	0.698
303.08 K, x1 = 0.7	–	12.25
303.09 K, x1 = 0.3	–	2.396
303.1 K, x1 = 0.1	–	0.651
303.11 K, x1 = 0.4	–	4.16
303.11 K, x1 = 0.5	–	6.13
303.11 K, x1 = 0.6	–	8.74
303.11 K, x1 = 0.9	–	24.88
303.12 K, x1 = 0.2	–	1.16
303.13 K, x1 = 1	–	30.58
303.14 K, x1 = 0.98	–	29.95
303.16 K, x1 = 0.8	–	17.9
308 K, x1 = 0.1	2.38	–
308 K, x1 = 0.3	6.28	–
308 K, x1 = 0.5	6.3	–
308 K, x1 = 0.9	4.21	–
308 K, x1 = 1	3.07	–
308.11 K, x1 = 1	–	26.5
308.12 K, x1 = 0.4	–	3.98
308.13 K, x1 = 0.2	–	1.074
308.14 K, x1 = 0.98	–	24.9
308.15 K, x1 = 0.5	–	5.77
308.16 K, x1 = 0.1	–	0.618

CC#N + CC[NH3+].O=[N+]([O-])[O-]
x2 = 0
Settings	viscosity [mPa·s]
288.07 K	0.408
293.1 K	0.371
298 K	0.35
298.12 K	0.352
303.13 K	0.321
